# Tested on: mice subjected to CCCI, subthreshold pilocarpine
# Assay: Pilocarpine-induced seizure susceptibility after CCCI
# Format: in vivo, mouse
# Details: three subthreshold pilocarpine doses on fifth day after CCCI; RTG 1.2 mg/kg i.p. 30 min post-TBI
# Protocol: Pilocarpine is a cholinomimetic drug widely used as a chemo-convulsant in animal models to induce status epilepticus. To minimize pilocarpine-induced peripheral cholinergic effects and mortality, animals were pretreated with scopolamine methyl nitrate (i.p. 1 mg/kg; MP Biomedicals) 30 minutes prior to pilocarpine injection. Both drugs were diluted in sterile 0.9% (w/v) saline. Immediately after pilocarpine injection, cortical activity was monitored for 24 hours by video/EEG recording.
smiles,measurement,value
"CCOC(=O)Nc1ccc(NCc2ccc(F)cc2)cc1N [RTG, 2-amino-4-(4-fluorobenzylamino)-1-ethoxycarbonylaminobenzene]",pilocarpine-induced abnormal spike activity,significant reduction of pilocarpine-induced abnormal spike activity
